Measurements as given in US6448052B2, “Carbonyl reductase enzyme and methods for its use” (Kaneka Corporation, priority 1997, dated 2002).

Tests used:
CRD enzyme [1] = assay: Effect of metal ions and inhibitors on CRD enzyme activity, ethyl 4-chloroacetoacetate as substrate; assay type: biochemical, Candida magnoliae IFO 0705
CRD enzyme [2] = assay: Substrate specificity of the purified CRD enzyme (decrease in NADPH absorption at 340 nm); assay type: biochemical, Candida magnoliae IFO 0705; conditions: for Relative activity (%): Substrate 0.2 mM, 0.32 mM NADPH, 200 mM phosphate buffer pH 7.0, 30° C., ethyl 4-chloroacetoacetate = 100; for substrate specificity (activity of the enzyme to the substrate, in words): NADPH as coenzyme
Protocol: First, the above yeast is cultured in an appropriate medium, and microbe bodies are collected from the resultant culture by centrifugation. The microbe bodies are destroyed by Dyno mill (manufactured by Dyno-Mill), for example, and centrifuged to remove cell debris and thus obtain a cell-free extract. The cell-free extract is then subjected to a processing, such as salting-out (e.g., ammonium sulfate precipitation and sodium phosphate precipitation), solvent precipitation (a protein fractionation precipitation method using acetone, ethanol, or the like), dialysis, gel filtration, ion exchange, column chromatography such as a reverse phase chromatography, and ultrafiltration, alone or in combination, to purify the enzyme. The CRD enzyme activity can be determined by measuring a reduction in the absorption at 340 nm at 30° C., for a 100 mM phosphate buffer (pH 6.5) with 1 mM ethyl 4-chloroacetoacetate as a substrate, 0.1 mM NADPH as a coenzyme, and the enzyme added thereto, or a 200 mM phosphate buffer (pH 7.0) with 0.2 mM ethyl 4-chloroacetoacetate as a substrate and 0.32 mM NADPH as a coenzyme added thereto. Under these reaction conditions, oxidation of 1 μmol NADPH into NADP in one minute is defined as one unit of enzymatic activity.
The enzyme activity was determined by, basically, allowing 3 ml of a reaction solution including 0.2 mM ethyl 4-chloroacetoacetate as a substrate, 0.32 mM NADPH as a coenzyme, and 0.1 ml of an enzyme solution in a 200 mM phosphate buffer (pH 7.0) to react at 30° C. for one minute and measuring a reduction in the absorption at 340 nm.
The enzyme according to the present invention was reacted using various carbonyl compounds shown in Table 1 below as a substrate under the same conditions as those used for ethyl 4-chloroacetoacetate.

CRD enzyme [3] = assay: Organic solvent resistance of the CRD enzyme; assay type: biochemical, Candida magnoliae IFO 0705; conditions: equivalent amount of solvent added to phosphate buffer (pH 7.0), shaken at 28° C. for 30 minutes
[4] = assay type: physicochemical, Candida magnoliae IFO 0705; conditions: 0.5 h, pH 7
Protocol: The expression that an enzyme is “stable” as used herein means that after being processed at pH 7.0 at 40° C. for 30 minutes the enzyme sustains an activity of 90% or more of that before the processing.
After the enzyme according to the present invention was treated at pH 7.0at 40° C. for 30 minutes, the activity of the enzyme was measured using ethyl 4-chloroacetoacetate as a substrate. As a result, the activity of 90% of that before the treatment remained.

[5] = Concentration of addition 0.1 mM, non-added = 100
[6] = Concentration of addition 1 mM, non-added = 100

In the case of `O=[N+]([O-])c1ccc(O)c([N+](=O)[O-])c1` [2,4-dinitrophenol], the “Relative activity (%)” value (CRD enzyme [1]; [5]) is reported as 86%.

With `O=Cc1ccccc1` [Benzaldehyde] the “Relative activity (%)” value (CRD enzyme [2]) was 0%.

In the case of `CC12CCC(C(=O)C1=O)C2(C)C` (stereo not shown) [Camphor quinone], the “Relative activity (%)” value (CRD enzyme [2]) is reported as 0%.

For `[Cl][Cd][Cl]` [CdCl2], the “Relative activity (%)” value (CRD enzyme [1]; [6]) was 91%.

For `O=CCCl` [Chloroacetoaldehyde], the “Relative activity (%)” value (CRD enzyme [2]) was 0%.

With `[Cl-].[Cl-].[Co+2]` [CoCl2] the “Relative activity (%)” value (CRD enzyme [1]) was 89%.

In the case of `O=S(=O)([O-])[O-].[Cu+2]` [CuSO4], the “Relative activity (%)” value (CRD enzyme [1]; [6]) is reported as 85%.

With `O=C(O)c1cc(SSc2ccc([N+](=O)[O-])c(C(=O)O)c2)ccc1[N+](=O)[O-]` [DTNB] the “Relative activity (%)” value (CRD enzyme [1]; Concentration of addition 0.05 mM, non-added = 100) was 100%.

With `CC(=O)C(C)=O` [Diacetyl] the “Relative activity (%)” value (CRD enzyme [2]) was 19%.

In the case of `O=c1oc2ccccc2c(O)c1Cc1c(O)c2ccccc2oc1=O` [Dicoumarol], the “Relative activity (%)” value (CRD enzyme [1]; [5]) is reported as 97%.

With `O=C(O)CN(CCN(CC(=O)O)CC(=O)O)CC(=O)O` [EDTA] the “Relative activity (%)” value (CRD enzyme [1]; [6]) was 95%.

For `CCOC(=O)CC(C)=O` [Ethyl acetoacetate], the “substrate specificity (activity of the enzyme to the substrate, in words)” value (CRD enzyme [2]) was “substantially no activity” and the “Relative activity (%)” value (CRD enzyme [2]) was 0%.

With `O=CC=O` [Glyoxal] the “Relative activity (%)” value (CRD enzyme [2]) was 0%.

For `[Cl][Hg][Cl]` [HgCl2], the “inhibitor (enzyme inhibited, in words)” value (CRD enzyme [1]) was “inhibited” and the “Relative activity (%)” value (CRD enzyme [1]; [5]) was 49%.

With `O=C(O)CI` [Iodoacetic acid] the “Relative activity (%)” value (CRD enzyme [1]) was 100%.

For `CC(=O)C=O` [Methyl glyoxal], the “Relative activity (%)” value (CRD enzyme [2]) was 0%.

With `[Cl-].[Cl-].[Mg+2]` [MgCl2] the “Relative activity (%)” value (CRD enzyme [1]; [6]) was 83%.

With `CCN1C(=O)C=CC1=O` [NEM] the “Relative activity (%)” value (CRD enzyme [1]; [6]) was 105%.

In the case of `O=Cc1cccnc1` [Nicotinaldehyde], the “Relative activity (%)” value (CRD enzyme [2]) is reported as 0%.

With `O=S(=O)(F)Cc1ccccc1` [PMSF] the “Relative activity (%)” value (CRD enzyme [1]; [6]) was 93%.

With `[Cl][Pb][Cl]` [PbCl2] the “Relative activity (%)” value (CRD enzyme [1]; [6]) was 86%.

For `NNc1ccccc1` [Phenylhydrazine], the “Relative activity (%)” value (CRD enzyme [1]; [6]) was 97%.

For `O=c1c(O)c(-c2ccc(O)c(O)c2)oc2cc(O)cc(O)c12` [Quercetin], the “inhibitor (enzyme inhibited, in words)” value (CRD enzyme [1]) was “inhibited”, the “Relative activity (%)” value (CRD enzyme [1]; Concentration of addition 0.01 mM, non-added = 100) was 84% and the “Relative activity (%)” value (CRD enzyme [1]; [5]) was 0%.

For `[Cl][Sn][Cl]` [SnCl2], the “Relative activity (%)” value (CRD enzyme [1]; [6]) was 77%.

With `O=S(=O)([O-])[O-].[Zn+2]` [ZnSO4] the “Relative activity (%)” value (CRD enzyme [1]; [6]) was 97%.

With `CCCCOC(C)=O` [butyl acetate] the “residual activity of the enzyme in the aqueous phase” value (CRD enzyme [3]) was 85%.

With `CCOC(=O)C(Cl)C(C)=O` (stereo not shown) [ethyl 2-chloroacetoacetate] the “Relative activity (%)” value (CRD enzyme [2]) was 95%.

In the case of `CCOC(=O)CC(=O)CCl` [ethyl 4-chloroacetoacetate], the “substrate specificity (activity of the enzyme to the substrate, in words)” value (CRD enzyme [2]) is reported as “strong activity” and the “Relative activity (%)” value (CRD enzyme [2]) is reported as 100%.

For `CCOC(C)=O` [ethyl acetate], the “residual activity of the enzyme in the aqueous phase” value (CRD enzyme [3]) was 72%.

For `O=Cc1ccncc1` [isonicotinaldehyde], the “Relative activity (%)” value (CRD enzyme [2]) was 0%.

In the case of `O=Cc1cccc(Cl)c1` [m-chlorobenzaldehyde], the “Relative activity (%)” value (CRD enzyme [2]) is reported as 0%.

For `O=Cc1cccc([N+](=O)[O-])c1` [m-nitrobenzaldehyde], the “Relative activity (%)” value (CRD enzyme [2]) was 0%.

With `COC(=O)C(Cl)C(C)=O` (stereo not shown) [methyl 2-chloroacetoacetate] the “Relative activity (%)” value (CRD enzyme [2]) was 11%.

With `COC(=O)CC(=O)CCl` [methyl 4-chloroacetoacetate] the “Relative activity (%)” value (CRD enzyme [2]) was 11%.

For `O=Cc1ccccc1Cl` [o-chlorobenzaldehyde], the “Relative activity (%)” value (CRD enzyme [2]) was 0%.

In the case of `O=Cc1ccccc1[N+](=O)[O-]` [o-nitrobenzaldehyde], the “Relative activity (%)” value (CRD enzyme [2]) is reported as 0%.

With `CCCCCCCCOC(=O)CC(=O)CCl` [octyl 4-chloroacetoacetate] the “Relative activity (%)” value (CRD enzyme [2]) was 36%.

In the case of `O=C(O)c1cc[c]([Hg][Cl])cc1` [p-CMB], the “Relative activity (%)” value (CRD enzyme [1]; [6]) is reported as 88%.

For `O=Cc1ccc(Cl)cc1` [p-chlorobenzaldehyde], the “Relative activity (%)” value (CRD enzyme [2]) was 0%.

In the case of `O=Cc1ccc([N+](=O)[O-])cc1` [p-nitrobenzaldehyde], the “Relative activity (%)” value (CRD enzyme [2]) is reported as 0%.

B1: CRD enzyme: carbonyl reductase purified from Candida magnoliae IFO 0705, amino acid sequence SEQ ID NO:1 (protein, listed as Candida magnoliae)
chain: MAKNFSNVEYPAPPPAHTKNESLQVLDLFKLNGKVASITGSSSGIGYALAEAFAQVGADVAIWYNSHDATGKAEALAKKYGVKVKAYKANVSSSDAVKQTIEQQIKDFGHLDIVVANAGIPWTKGAYIDQDDDKHFDQVVDVDLKGVGYVAKHAGRHFRERFEKEGKKGALVFTASMSGHIVNVPQFQATYNAAKAGVRHFAKSLAVEFAPFARVNSVSPGYINTEISDFVPQETQNKWWSLVPLGRGGETAELVGAYLFLASDAGSYATGTDIIVDGGYTLP
For B1, the “heat stability: activity remaining relative to before the treatment” value [4] was 90%.
